From US20250197403A1, “HETEROARYL COMPOUNDS FOR TREATMENT OF COMPLEMENT FACTOR D MEDIATED DISORDERS” (Achillion Pharmaceuticals, Inc., priority 2020, published 2025)
pIC50: −log10 of the molar value.

The molecules below were run against Human Factor D (Homo sapiens (Human), UniProt P00746) (assay: Human Factor D Assay). Settings: Human Factor D 80 nM, substrate Z-L-Lys-SBzl, assay according to Example 3.
Type: biochemical
Protocol: The assay according to Example 3 was used to determine the IC50's of the compounds. Other standard factor D inhibition assays are also available.
Human Factor D (purified from human serum, Complement Technology, Inc.) at 80 nM final concentration is incubated with test compound at various concentrations for 5 min at room temperature in 50 mM Tris, 1M NaCl, pH 7.5. A synthetic substrate Z-L-Lys-SBzl and DTNB (Ellman's reagent) are added to final concentrations of 100 μM each. Absorbance at 405 nm (A405) is recorded at 30 second intervals for 30 min using a microplate spectrophotometer. IC50 values are calculated by nonlinear regression of complement Factor D reaction rates as a function of test compound concentration.

Chain of Human Factor D (P00746 26-253): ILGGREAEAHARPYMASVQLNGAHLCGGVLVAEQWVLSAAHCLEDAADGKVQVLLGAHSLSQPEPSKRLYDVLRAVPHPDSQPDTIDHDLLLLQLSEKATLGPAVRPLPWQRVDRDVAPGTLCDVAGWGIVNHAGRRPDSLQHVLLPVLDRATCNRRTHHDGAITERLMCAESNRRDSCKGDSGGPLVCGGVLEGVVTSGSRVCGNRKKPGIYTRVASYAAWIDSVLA

Structure (SMILES) | pIC50
CC(=O)c1cn(CC(=O)N2[C@H](C(=O)N[C@H](C)C(F)=C(C)C)C[C@@]3(C)C[C@@H]23)c2c(C)cc(-c3cnc(C)nc3)cc12 [Compound 28, (1R,3S,5R)-2-(2-(3-acetyl-7-methyl-5-(2-methylpyr-imidin-5-yl)-1H-indol-1-yl)acetyl)-N-((R)-3-fluoro-4-methylpent-3-en-2-yl)-5-methyl-2-azabicyclo[3.1.0] hexane-3-carboxamide] | > 6.00
CC(=O)c1cn(CC(=O)N2[C@H](C(=O)N[C@H](C)C(F)=C(C)C)C[C@@]3(C)C[C@@H]23)c2c(C)cc(-c3cnc4cc(C)nn4c3)cc12 [Compound 27, (1R,3S,5R)-2-(2-(3-acetyl-7-methyl-5-(2-methylpyr-azolo[1,5-a]pyrimidin-6-yl)-1H-indol-1-yl)acetyl)-N-((R)-3-fluoro-4-methyl-pent-3-en-2-yl)-5-methyl-2-azabicyclo[3.1.0]hexane-3-carboxamide] | > 6.00
COCc1ccc(C(F)(F)F)nc1NC(=O)[C@@H]1C[C@@]2(C)C[C@H]2N1C(=O)Cn1cc(C(C)=O)c2cc(-c3cnc(C)nc3)nc(C)c21 [Compound 41, (1R,3S,5R)-2-(2-(3-acetyl-7-methyl-5-(2-methylpyr-imidin-5-yl)-1H-pyrrolo [2,3-c]pyridin-1-yl)acetyl)-N-(3-(methoxymethyl)-6-(trifluoromethyl)pyridin-2-yl)-5-methyl-2-azabicyclo [3.1.0]hexane-3-carbox-amide] | > 6.00
CC(=O)c1nn(CC(=O)N(C)[C@@H](C)C(=O)Nc2nc(Br)ccc2C)c2cc3c(cc12)-c1cnc(C)nc1C=CC3 [Compound 110, (S)-2-(2-(11-acetyl-3-methylpyrimido[4′,5′:6,7]cyclohepta[1,2-f]indazol-9(7H)-yl)-N-methylacetamido)-N-(6-bromo-3-methylpyridin-2-yl)propanamide] | > 6.00
CC(=O)c1cn(CC(=O)N2[C@H](C(=O)Nc3nc(C(F)(F)F)c(F)cc3C)C[C@@]3(C)C[C@@H]23)c2c(C)cc(-c3ccc4nc(C)nn4c3)cc12 [Compound 19, (1R,3S,5R)-2-(2-(3-acetyl-7-methyl-5-(2-methyl-[1,2,4]triazolo[1,5-a]pyr-idin-6-yl)-1H-indol-1-yl)-acetyl)-N-(5-fluoro-3-methyl-6-(trifluorometh-yl)pyridin-2-yl)-5-methyl-2-azabicyclo[3.1.0]hexane-3-carboxamide] | > 6.00
CC(=O)c1nn(CC(=O)N2[C@H](C(=O)Nc3nc(Br)ccc3C)C[C@@]3(C)C[C@@H]23)c2cc3c(cc12)-c1cnc(C)nc1C=CC3 [Compound 69, (1R,3S,5R)-2-(2-(11-acet-yl-3-methylpyrimido [4′,5′:6,7]cyclohepta[1,2-f]indazol-9(7H)-yl)acetyl)-N-(6-bromo-3-methylpyr-idin-2-yl)-5-methyl-2-aza-bicyclo[3.1.0]hexane-3-carboxamide] | > 6.00
CC(=O)c1cn(CC(=O)N2[C@H](C(=O)Nc3nc(C(F)(F)F)cc(F)c3C)C[C@@]3(C)C[C@@H]23)c2c(C)cc(-c3ccc4nc(C)nn4c3)cc12 [Compound 58, (1R,3S,5R)-2-(2-(3-acetyl-7-methyl-5-(2-methyl-[1,2,4]triazolo[1,5-a]pyr-idin-6-yl)-1H-indol-1-yl)-acetyl)-N-(4-fluoro-3-methyl-6-(trifluorometh-yl)pyridin-2-yl)-5-methyl-2-azabicyclo[3.1.0]hexane-3-carboxamide] | > 6.00
CC(=O)c1cn(CC(=O)N2[C@H](C(=O)Nc3nc(C(F)(F)F)ccc3Cl)C[C@@]3(C)C[C@@H]23)c2c(C)cc(-c3cnc4cc(C)nn4c3)cc12 [Compound 51, (1R,3S,5R)-2-(2-(3-acetyl-7-methyl-5-(2-methylpyr-azolo[1,5-a]pyrimidin-6-yl)-1H-indol-1-yl)acetyl)-N-(3-chloro-6-(trifluoro-methyl)pyridin-2-yl)-5-methyl-2-azabicyclo[3.1.0] hexane-3-carboxamide] | > 6.00
CC(=O)c1cn(CC(=O)N2[C@H](C(=O)Nc3nc(Br)cc(F)c3C)C[C@@]3(C)C[C@@H]23)c2c(C)cc(-c3cnc(C)nc3)cc12 [Compound 15, (1R,3S,5R)-2-(2-(3-acetyl-7-methyl-5-(2-methylpyr-imidin-5-yl)-1H-indol-1-yl)acetyl)-N-(6-bromo-4-fluoro-3-methylpyridin-2-yl)-5-methyl-2-azabicyclo [3.1.0]hexane-3-carbox-amide] | > 6.00
CC(=O)c1nn(CC(=O)N2[C@H](C(=O)Nc3nc(Br)c(F)cc3C)C[C@@]3(C)C[C@@H]23)c2c(C)cc(-c3cnc([C@@H](C)O)nc3)cc12 [Compound 18, (1R,3S,5R)-2-(2-(3-acetyl-5-(2-((R)-1-hydroxyethyl)-pyrimidin-5-yl)-7-methyl-1H-indazol-1-yl)acetyl)-N-(6-bromo-5-fluoro-3-meth-ylpyridin-2-yl)-5-methyl-2-azabicyclo[3.1.0]hexane-3-carboxamide] | > 6.00
COCc1ccc(C(F)(F)F)nc1NC(=O)[C@@H]1C[C@@]2(C)C[C@H]2N1C(=O)Cn1cc(C(C)=O)c2cc(-c3cnc(C)nc3)cc(C)c21 [Compound 52, (1R,3S,5R)-2-(2-(3-acetyl-7-methyl-5-(2-methylpyr-imidin-5-yl)-1H-indol-1-yl)acetyl)-N-(3-(methoxy-methyl)-6-(trifluorometh-yl)pyridin-2-yl)-5-methyl-2-azabicyclo[3.1.0]hexane-3-carboxamide] | > 6.00
CC(=O)c1cn(CC(=O)N2[C@H](C(=O)Nc3nc(C(F)(F)F)ccc3C#N)C[C@@]3(C)C[C@@H]23)c2c(C)nc(-c3cnc4cc(C)nn4c3)cc12 [Compound 23, (1R,3S,5R)-2-(2-(3-acetyl-7-methyl-5-(2-methylpyr-azolo[1,5-a]pyrimidin-6-yl)-1H-pyrrolo[2,3-c]pyr-idin-1-yl)acetyl)-N-(3-cyano-6-(trifluoromethyl)-pyridin-2-yl)-5-methyl-2-azabicyclo[3.1.0]hexane-3-carboxamide] | > 6.00
CC(=O)c1cn(CC(=O)N2C[C@@](F)(CF)CC2C(=O)Nc2nc(C(F)(F)F)ccc2C#N)c2c(C)nc(-c3cnc4cc(C)nn4c3)cc12 (stereo partly drawn) [Compound 33, (4R)-1-(2-(3-acetyl-7-methyl-5-(2-methylpyr-azolo[1,5-a]pyrimidin-6-yl)-1H-pyrrolo[2,3-c]pyr-idin-1-yl)acetyl)-N-(3-cyano-6-(trifluoromethyl)-pyridin-2-yl)-4-fluoro-4-(fluoromethyl)pyrrolidine-2-carboxamide] | > 6.00
CC(=O)c1cn(CC(=O)N2C[C@H](F)C[C@H]2C(=O)N[C@@H](C)C(F)=C(C)C)c2c(C)cc(-c3cnc4cc(C)nn4c3)cc12 [Compound 37, (2S,4R)-1-(2-(3-acetyl-7-methyl-5-(2-methylpyr-azolo[1,5-a]pyrimidin-6-yl)-1H-indol-1-yl)acetyl)-4-fluoro-N-((S)-3-fluoro-4-methylpent-3-en-2-yl)pyr-rolidine-2-carboxamide] | > 6.00
CC(=O)c1cn(CC(=O)N2[C@H](C(=O)Nc3nc(Br)ccc3C)C[C@@]3(C)C[C@@H]23)c2ccc(NC3(C)COC3)cc12 [Compound 26, (1R,3S,5R)-2-(2-(3-acetyl-5-((3-methyloxetan-3-yl)-amino)-1H-indol-1-yl)-acetyl)-N-(6-bromo-3-methylpyridin-2-yl)-5-methyl-2-azabicyclo[3.1.0] hexane-3-carboxamide] | > 6.00
CC(=O)c1cn(CC(=O)N2[C@H](C(=O)Nc3nc(C(F)(F)F)cc(F)c3C)C[C@@]3(C)C[C@@H]23)c2c(C)cc(-c3cnc(C)nc3)cc12 [Compound 54, (1R,3S,5R)-2-(2-(3-acetyl-7-methyl-5-(2-methylpyr-imidin-5-yl)-1H-indol-1-yl)acetyl)-N-(4-fluoro-3-methyl-6-(trifluorometh-yl)pyridin-2-yl)-5-methyl-2-azabicyclo[3.1.0]hexane-3-carboxamide] | > 6.00
CC(=O)c1cn(CC(=O)N2[C@H](C(=O)Nc3cncc(C(F)(F)F)n3)C[C@@]3(C)C[C@@H]23)c2c(C)cc(-c3cnc(C)nc3)cc12 [Compound 45, (1R,3S,5R)-2-(2-(3-acetyl-7-methyl-5-(2-methylpyr-imidin-5-yl)-1H-indol-1-yl)acetyl)-5-methyl-N-(6-(trifluoromethyl)pyrazin-2-yl)-2-azabicyclo[3.1.0] hexane-3-carboxamide] | > 6.00
CC(=O)c1cn(CC(=O)N2[C@H](C(=O)N[C@@H](C)C(F)=C(C)C)C[C@@]3(C)C[C@@H]23)c2c(C)nc(-c3cnc(C)nc3)cc12 [Compound 39, (1R,3S,5R)-2-(2-(3-acetyl-7-methyl-5-(2-methylpyr-imidin-5-yl)-1H-pyrrolo [2,3-c]pyridin-1-yl)acetyl)-N-((S)-3-fluoro-4-methyl-pent-3-en-2-yl)-5-methyl-2-azabicyclo[3.1.0]hexane-3-carboxamide] | > 6.00
CC(=O)c1cn(CC(=O)N2[C@H](C(=O)Nc3nc(Br)ccc3C3CC3)C[C@@]3(C)C[C@@H]23)c2c(C)cc(-c3cnc4cc(C)nn4c3)cc12 [Compound 8, (1R,3S,5R)-2-(2-(3-acetyl-7-methyl-5-(2-methylpyr-azolo[1,5-a]pyrimidin-6-yl)-1H-indol-1-yl)acetyl)-N-(6-bromo-3-cycloprop-ylpyridin-2-yl)-5-methyl-2-azabicyclo[3.1.0]hexane-3-carboxamide] | < 5.00
CC(=O)c1cn(CC(=O)N2[C@H](C(=O)Nc3nc(C(F)(F)F)ccc3Cl)C[C@@]3(C)C[C@@H]23)c2c(C)cc(-c3ccc4nc(C)nn4c3)cc12 [Compound 3, (1R,3S,5R)-2-(2-(3-acetyl-7-methyl-5-(2-methyl-[1,2,4]triazolo[1,5-a]pyr-idin-6-yl)-1H-indol-1-yl)-acetyl)-N-(3-chloro-6-(tri-fluoromethyl)pyridin-2-yl)-5-methyl-2-azabicyclo-[3.1.0]hexane-3-carbox-amide] | > 6.00
